The values below come from patent publication US20190021321A1, “BROAD SPECTRUM ANTIMICROBIAL & ANTICOAGULANT COMPOSITION” (priority 2016, published 2019).

For data set [1], the system named is C. albicans. The data set is described as follows: Rate kill assay, plate count (Part A synergy; Part B pH and D-Mannitol effect). The format is cell-based. Particulars: D-Mannitol 0.73 wt % alone, both at pH 7.5 & 11.
Method: The second set of experiments conducted, were “Rate Kill” assay. A rate kill assay can confirm whether combinations are synergistic or not. In these assays the formulations are first exposed to organisms for a desired time (for the current formulations readings were taken at 1, 3 and 24 hours). Then a sample of the organisms and formulation mixture is serially diluted and plated to assess the log reduction. The organisms are allowed to grow and are checked for growth/log reduction after 24 hrs. The log reduction values obtained for individual components are compared with the combinations.
The following solutions were prepared:
Each solution was then combined with C. albicans and the log reduction of the C. albicans was measured at 1, 3 and 24 hours.
In data set [2] the test system is S. aureus. The description is as above. The format is cell-based. Particulars: D-Mannitol 0.73 wt % alone, both at pH 7.5 & 11.
Method: The second set of experiments conducted, were “Rate Kill” assay. […] In these assays the formulations are first exposed to organisms for a desired time (for the current formulations readings were taken at 1, 3 and 24 hours). Then a sample of the organisms and formulation mixture is serially diluted and plated to assess the log reduction. The organisms are allowed to grow and are checked for growth/log reduction after 24 hrs. The log reduction values obtained for individual components are compared with the combinations.
Each solution was then combined with S. aureus and the log reduction of the S. aureus was measured at 1, 3 and 24 hours.
Data set [3] relates to P. aeruginosa. The description is as above. The format is cell-based.
Method: In these assays the formulations are first exposed to organisms for a desired time (for the current formulations readings were taken at 1, 3 and 24 hours). Then a sample of the organisms and formulation mixture is serially diluted and plated to assess the log reduction. The organisms are allowed to grow and are checked for growth/log reduction after 24 hrs. The log reduction values obtained for individual components are compared with the combinations.
Each solution was then combined with P. aeruginosa and the log reduction of the P. aeruginosa was measured at 1, 3 and 24 hours.
For data set [4] the following is noted: up to 3000 mg infused over 3 hours, daily, treatment of hyper-calcemia in humans; cited from earlier work.
For data set [5], the system named is C. albicans. Particulars: for MIC: C. albicans; for GROWTH: 24 hours, replicate columns. On the procedure: (§1) Experiments were conducted to assess the minimum inhibitory concentration (MIC) both for sodium salt of EDTA that comprises tetra-sodium EDTA and Ethanol. […] Clear solution indicates no growth.
(§2) The following solutions were prepared to evaluate the MIC values of sodium salt of EDTA that comprises tetra-sodium EDTA (TEDTA) and Ethanol.

In data set [6] the test system is P. aeruginosa. The settings on record: for GROWTH: 24 hours, replicate columns; for MIC: P. aeruginosa. As to the method:
as §1, §2

The test system of data set [7] is S. aureus. The data set is described as follows: Minimum inhibitory concentration (MIC) via macro-dilution method. Particulars: for GROWTH: 24 hours, replicate columns; for MIC: S. aureus.
Data set [8] concerns S. aureus. As to the kind of experiment: Synergy evaluation, checkerboard titration, macro-dilution. The format is cell-based. On the procedure:
(§3) The first set of experiments conducted, were screening experiments using checkerboard titration strategy to assess if the combinations fall within a range having an Fractional Inhibitory Concentration (FIC) index value of ≤1. The method used was a NCCLS macro-dilution procedure.
(§4) The Checkerboard Titration method was used to assess the interactions between TEDTA and Ethanol. […] During this experiment, TEDTA and Ethanol were tested in the combinations to assess if the combinations have a Fractional Inhibitory Concentration (FIC) index of ≤1. The following concentrations were tested:
(§5) Fractional Inhibitory Concentration (FIC) is defined as the MIC of the compound in combination divided by the MIC of the compound alone. If the FIC index is ≤0.5, the combination is interpreted to be synergistic; <1 but >0.5—as partially synergistic; =1 as additive; >1 but <4 as indifferent; and ≥4 as antagonistic. In order to calculate the FIC index the following calculations are performed for compounds A and B:
(§6) FIC-A=(MIC of A in combination)/(MIC of A alone)
(§7) FIC-B=(MIC of B in combination)/(MIC of B alone)
(§8) FIC-combination=FIC-A+FIC-B
In order to determine the MIC-Ethanol (MIC of Ethanol in combination with TEDTA), a minimum concentration of Ethanol, while in combination with TEDTA, which inhibited the growth of S. aureus in MHB was found.

Data set [9] concerns C. albicans. The data set is described as above. The format is cell-based. As to the method: as §3, §4, §5, §6, §7, §8
(§9) The following concentrations were tested:
The MIC-TEDTA (MIC of TEDTA in combination with Ethanol), a minimum concentration of TEDTA, while in combination with Ethanol, that inhibited the growth of C. albicans in MHB was found. In order to determine the MIC-Ethanol (MIC of Ethanol in combination with TEDTA), a minimum concentration of Ethanol, while in combination with TEDTA, that inhibited the growth of C. albicans in MHB was found.

Data set [10] has as its system P. aeruginosa. The data set is described as above. The format is cell-based. As to the method: as §3, §4, §5, §6, §7, §8, §9
The MIC-TEDTA (MIC of TEDTA in combination with Ethanol), a minimum concentration of TEDTA, while in combination with Ethanol, that inhibited the growth of P. aeruginosa in MHB was found. In order to determine the MIC-Ethanol (MIC of Ethanol in combination with TEDTA), a minimum concentration of Ethanol, while in combination with TEDTA, that inhibited the growth of P. aeruginosa in MHB was found.

[11] abbreviates: S. aureus in Mueller Hinton Broth.
Where [12] appears, read: TEDTA alone, listed as Sodium Salt(s) of EDTA.
The mark [13] stands for this setting: TEDTA 0.06 WT % individual (0.25 MIC).
Where [14] appears, read: TEDTA 0.12 WT % individual (0.50 MIC).
The mark [15] stands for this setting: TEDTA 0.24 WT % individual (1.00 MIC).

Where two headings read alike, the source gives them in different places. Where only a bound is given, the exact number is not on record here.

Consider `OC[C@@H](O)[C@@H](O)[C@H](O)[C@H](O)CO` [D-Mannitol], for which the log reduction in [1] is listed as > 5 log; in data set [2] it was > 4 log; in data set [3] (P. aeruginosa, D-Mannitol 0.73 wt % alone, both at pH 7.5 & 11), > 5 log. Also, the “LOG REDUCTION AGAINST P. aeruginosa” value in [3] (footnote summary, D-mannitol alone, 0.73 wt %) is on record as “D-MANNITOL EXHIBITS > 5 LOG REDUCTION AGAINST P. aeruginosa”.

With `O=C([O-])CN(CCN(CC(=O)[O-])CC(=O)O)CC(=O)O.[Na+].[Na+]` [EDTA disodium], in data set [4], the “tolerability of infused dose” value was “well tolerated”.

In the case of `CCO` [ETHANOL, Ethanol], the figures for the MIC in [5] (ethanol alone), in [6] (ethanol alone) and in data set [7] (ethanol alone) were 3.125 VOL %, 6.25 VOL % and 25 VOL %, respectively. Also, the GROWTH result in data set [5] (ETHANOL 3.125 VOL %) is recorded as “−VE”; in [5] (ETHANOL 6.25 VOL %), “−VE”; in [5] (ETHANOL 12.50 VOL %) it was “−VE”; in data set [5] (ETHANOL 25.00 VOL %), “−VE”; in data set [5] (ETHANOL 50.00 VOL %) it was “−VE”; in [6] (ETHANOL 3.13 VOL %) it was “+VE”. The GROWTH entry in data set [6] (ETHANOL 6.25 VOL %) is listed as “−VE”; in data set [6] (ETHANOL 12.50 VOL %), “−VE”; in data set [6] (ETHANOL 25.00 VOL %), “−VE”; in [6] (ETHANOL 50.00 VOL %), “−VE”; in data set [7] (ETHANOL 3.13 VOL %), “+VE”; in data set [7] (ETHANOL 6.25 VOL %), “+VE”. In addition, the GROWTH result in data set [7] (ETHANOL 12.50 VOL %) is reported as “+VE”; in [7] (ETHANOL 25.00 VOL %), “−VE”; in data set [7] (ETHANOL 50.00 VOL %), “−VE”; in data set [8] (ETHANOL 6.250 VOL % individual (0.25 MIC)), “+VE”; in [8] (ETHANOL 12.500 VOL % individual (0.50 MIC)), “+VE”; in data set [8] (ETHANOL 25.000 VOL % individual (1.00 MIC)), “−VE”. For the same molecule, the GROWTH result in [9] (ETHANOL 0.781 VOL % individual (0.25 MIC)) is recorded as “+VE”; in [9] (ETHANOL 1.563 VOL % individual (0.50 MIC)), “+VE”; in data set [9] (ETHANOL 3.125 VOL % individual (1.00 MIC)), “−VE”; in data set [10] (ETHANOL 1.563 VOL % individual (0.25 MIC)) it was “+VE”; in data set [10] (ETHANOL 3.125 VOL % individual (0.50 MIC)), “+VE”; in data set [10] (ETHANOL 6.250 VOL % individual (1.00 MIC)) it was “−VE”. Also, in [8] (setting [11]), the “MIC-ETH (MIC of Ethanol in combination with TEDTA)” value is recorded as 6.25 % (w/v). In addition, the FIC-Ethanol in data set [8] (S. aureus, 6.25/25) is on record as 0.25; in [9] (C. albicans, 0.781/3.125), 0.25; in data set [10] (P. aeruginosa, 3.125/6.25), 0.5. For the same molecule, the “MIC-Ethanol (MIC of Ethanol in combination with TEDTA)” value is reported as 0.781 % (v/v) in data set [9] (C. albicans in MHB) and 3.125 % (v/v) in data set [10] (P. aeruginosa in MHB).

`O=C([O-])CN(CCN(CC(=O)[O-])CC(=O)[O-])CC(=O)[O-].[Na+].[Na+].[Na+].[Na+]` [TEDTA, tetra-sodium EDTA]: the MIC in data set [5] (setting [12]), in data set [6] (setting [12]) and in data set [7] (setting [12]) was 0.24 WT % in each case. Also, the GROWTH result is recorded as “+VE” in data set [5] (TEDTA 0.015 WT %); “+VE” in data set [5] (TEDTA 0.030 WT %); “+VE” in data set [5] (TEDTA 0.060 WT %); “+VE” in data set [5] (TEDTA 0.120 WT %); “−VE” in data set [5] (TEDTA 0.240 WT %); “+VE” in data set [6] (TEDTA 0.125 WT %). The GROWTH entry in data set [6] (TEDTA 0.250 WT %) is reported as “−VE”; in [6] (TEDTA 0.500 WT %), “−VE”; in [6] (TEDTA 1.000 WT %), “−VE”; in data set [6] (TEDTA 1.500 WT %) it was “−VE”; in [7] (TEDTA 0.015 WT %), “+VE”; in data set [7] (TEDTA 0.030 WT %) it was “+VE”. In addition, the GROWTH result was “+VE” in data set [7] (TEDTA 0.060 WT %); “+VE” in data set [7] (TEDTA 0.120 WT %); “−VE” in data set [7] (TEDTA 0.240 WT %); “+VE” in [8] (setting [13]); “+VE” in data set [8] (setting [14]); “−VE” in [8] (setting [15]). The GROWTH result in data set [9] (setting [13]) is on record as “−VE”; in [9] (setting [14]), “−VE”; in data set [9] (setting [15]), “−VE”; in [10] (TEDTA 0.06 WT % individual (0.24 MIC)) it was “+VE”; in [10] (TEDTA 0.12 WT % individual (0.48 MIC)), “+VE”; in data set [10] (TEDTA 0.24 WT % individual (0.96 MIC)), “−VE”. Also, the “MIC-TEDTA (MIC of TEDTA in combination with Ethanol)” value in [8] (setting [11]) is 0.06 % (w/v); in data set [9] (C. albicans in MHB), 0.06 % (w/v); in [10] (P. aeruginosa in MHB), 0.12 % (w/v). Further, the FIC-TEDTA amounted to 0.25 in data set [8] (S. aureus, 0.06/0.24); 0.25 in data set [9] (C. albicans, 0.06/0.24); 0.48 in data set [10] (P. aeruginosa, 0.12/0.25).
